Measured values taken from PMC5331433, “Ustiloxin G, a New Cyclopeptide Mycotoxin from Rice False Smut Balls” (Toxins, 2017).

Experiments:
BGC-823 = test: Cytotoxicity, MTT assay, BGC-823; format: cell-based, human; details: gastric cancer cells, 24 h treatment, absorbance 570 nm, three replicates
Procedure: (§1) Cytotoxicity of the compounds were tested against human carcinoma cells using the microculture methyl-thiazolyl-tetrazolium (MTT) assay as described previously. Briefly, the cell lines were maintained in a humidified atmosphere containing 5% CO2 at 37 °C. For preparing working solution, 1 μmol of each purified ustiloxin was dissolved in 10 mL of ultrapure water to obtain the stock solution (100 μM), which was further diluted to a series of concentrations (50, 25, 12.5, 6.25, 3.125, 1, 0.1, 1 × 10^−2, 1 × 10^−3, 1 × 10^−4, 1 × 10^−5 μM) with ultrapure water. Normally, 200 μL of the cell suspensions (5 × 10^4 cells/mL) was plated in 96-well culture plates at 37 °C. After 12 h, 20 μL of working solution was added to each well respectively and cultured at 37 °C for 24 h. Then, MTT was dissolved in saline to 5 mg/mL, and 20 μL of this solution was added to each well. After 4 h, the medium was removed, and then 100 μL of DMSO was added to dissolve any formazan crystals formed. Absorbance was then determined at 570 nm. The cell lines of colon cancer cells (HCT-116), non-small-cell lung carcinoma cells (NCI-H1650), gastric cancer cells (BGC-823), and liver hepatocellular carcinoma cells (HepG2) were tested for all isolated compounds. In addition, lung adenocarcinoma cells (A549) were tested on ustiloxins A (2), B (3), and G (1), and melanoma cells (A375) were tested on ustiloxin G (1). Ultrapure water and taxol were used as the negative and positive controls, respectively. All experiments were performed with three replicates.

A549 = test: Cytotoxicity, MTT assay, A549; format: cell-based, human; details: lung adenocarcinoma cells, 24 h treatment, absorbance 570 nm, three replicates
Procedure: as §1

HepG2 = test: Cytotoxicity, MTT assay, HepG2; format: cell-based, human; details: liver hepatocellular carcinoma cells, 24 h treatment, absorbance 570 nm, three replicates
Procedure: as §1

HCT116 = test: Cytotoxicity, MTT assay, HCT116; format: cell-based, human; details: colon cancer cells, 24 h treatment, absorbance 570 nm, three replicates
Procedure: as §1

[1] = test system: rice (Oryza sativa) seeds, germ; test: Inhibition of germ elongation of rice seeds; details: 48 h, 25 °C, dark, mean of triplicate ± SD
Procedure: (§2) Phytotoxicity of the compounds was evaluated by their inhibitory activities on the radicle and germ elongation of rice (Oryza sativa) seeds. Two varieties (Lijiang and Zhonghua 11) of the seeds, which were obtained from Prof. Zejian Guo (Department of Plant Pathology and collected in 2015, China Agricultural University) were used.
(§3) The bioassay was performed using the method described previously with some modifications. Briefly, five 3-day germinated rice seeds of each rice variety were sown onto each well of a 24-well plate, containing 200 μL of working solution. For preparing working solution, 1 mg of each purified compound was dissolved in 1 mL of ultrapure water to obtain the stock solution (1 mg/mL), which was further diluted to a series of concentrations (200, 100, 50, 20, and 10 μg/mL) with ultrapure water. The ultrapure water was used as the negative control, and glyphosate (N-(phosphonomethyl)glycine) at the same concentrations as the positive control. Plates were incubated in a moist chamber at 25 °C in the dark. The length of each radicle or germ was measured after treatment for 48 h. The inhibition of radicle or germ elongation was calculated as follows: Inhibition (%) = [(Lc − Lt)/Lc] × 100, where Lc is the radicle or germ length of the control group, and Lt is the length of the treated group.
(§4) All experiments were performed with three replicates, and the results were represented by their mean values and the standard deviations (SD). The data were carried out using analysis of variance (one-way ANOVA) to detect significant differences by PROC ANOVA of SAS version 8.2.

[2] = test system: rice (Oryza sativa) seeds, radicle; test: Inhibition of radicle elongation of rice seeds; details: 48 h, 25 °C, dark, mean of triplicate ± SD
Procedure: as §2, §3, §4

rice seedlings = test: Abnormal swelling of roots and germs of rice seedlings; design: species or system Oryza sativa; details: observation in words; Figure 3B shows 200 µg/mL of ustiloxin G, variety Lijiang
Procedure: as §3

NCI-H1650 = test: Cytotoxicity, MTT assay, NCI-H1650; format: cell-based, human; details: non-small-cell lung carcinoma cells, 24 h treatment, absorbance 570 nm, three replicates
Procedure: as §1

| Structure (SMILES) | IC50 (BGC-823) [µM] | IC50 (A549) [µM] | IC50 (HepG2) [µM] | IC50 (HCT116) [µM] | Inhibition Ratio (%) Seed Germ Var. Lijiang ([1]; 10 µg/mL) [%] | Inhibition Ratio (%) Seed Germ Var. Zhonghua 11 ([1]; 10 µg/mL) [%] | Inhibition Ratio (%) Seed Germ Var. Lijiang ([1]; 20 µg/mL) [%] | Inhibition Ratio (%) Seed Germ Var. Zhonghua 11 ([1]; 20 µg/mL) [%] | Inhibition Ratio (%) Seed Germ Var. Lijiang ([1]; 50 µg/mL) [e %] | Inhibition Ratio (%) Seed Germ Var. Zhonghua 11 ([1]; 50 µg/mL) [%] | Inhibition Ratio (%) Seed Germ Var. Lijiang ([1]; 100 µg/mL) [d %] | Inhibition Ratio (%) Seed Germ Var. Zhonghua 11 ([1]; 100 µg/mL) [%] | Inhibition Ratio (%) Seed Germ Var. Lijiang ([1]; 200 µg/mL) [%] | Inhibition Ratio (%) Seed Germ Var. Zhonghua 11 ([1]; 200 µg/mL) | Inhibition Ratio (%) Seed Radicle Var. Lijiang ([2]; 10 µg/mL) | Inhibition Ratio (%) Seed Radicle Var. Zhonghua 11 ([2]; 10 µg/mL) [l %] | Inhibition Ratio (%) Seed Radicle Var. Lijiang ([2]; 20 µg/mL) | Inhibition Ratio (%) Seed Radicle Var. Zhonghua 11 ([2]; 20 µg/mL) | Inhibition Ratio (%) Seed Radicle Var. Lijiang ([2]; 50 µg/mL) | Inhibition Ratio (%) Seed Radicle Var. Zhonghua 11 ([2]; 50 µg/mL) | further results |
| --- | --- | --- | --- | --- | --- | --- | --- | --- | --- | --- | --- | --- | --- | --- | --- | --- | --- | --- | --- | --- | --- |
| CC[C@@]1(C)Oc2cc(c([S+]([O-])C[C@@H](O)C[C@H](N)C(=O)O)cc2O)[C@@H](O)[C@H](NC)C(=O)N[C@@H](C)C(=O)N[C@@H]1C(=O)NCC(=O)O (stereo partly shown) [Ustiloxin B (3), ustiloxin B] | 1.03 | > 50 | 13 | 7.2 | 13.54 | 3.30 | 20.63 | 12.02 | 37.98 ± 3.83 | 35.60 | 49.65 ± 2.13 | 44.72 | 64.39 | 55.61 ± 2.75 a % | 4.16 ± 0.66 l % | 11.90 ± 6.45 | 14.27% | 20.22% | 53.24 ± 4.98 e % | 54.78 ± 3.09 d % | Inhibition Ratio (%) Seed Radicle Var. Lijiang ([2]; 100 µg/mL): 86.62 ± 1.98 b %; Inhibition Ratio (%) Seed Radicle Var. Zhonghua 11 ([2]; 100 µg/mL): 87.80%; Inhibition Ratio (%) Seed Radicle Var. Lijiang ([2]; 200 µg/mL): 95.32 ± 1.32 a %; Inhibition Ratio (%) Seed Radicle Var. Zhonghua 11 ([2]; 200 µg/mL): 93.04 ± 2.10 a %; abnormal swelling of the roots and germs of rice seedlings (rice seedlings): abnormal swelling; IC50 (NCI-H1650): 21.6 µM |
| CC[C@@]1(C)Oc2cc(c([S+]([O-])C[C@@H](O)C[C@H](N)C(=O)O)cc2O)[C@@H](O)[C@H](NC)C(=O)N[C@@H](C(C)C)C(=O)N[C@@H]1C(=O)NCC(=O)O (stereo partly shown) [Ustiloxin A (2), ustiloxin A] | 2.66 | 3.12 | > 50 | > 50 | 11.38 | 13.25 | 18.00 | 26.59 | 39.01 ± 6.84 | 42.04 | 50.59 ± 6.36 | 45.47 | 60.27 | 52.33% | 17.83% | 12.27 ± 6.71 | 43.57 ± 0.61 f % | 56.16 ± 2.30 d % | 87.38 ± 0.79 b % | 89.14 ± 4.38 a % | Inhibition Ratio (%) Seed Radicle Var. Lijiang ([2]; 100 µg/mL): 94.53 ± 0.36 a %; Inhibition Ratio (%) Seed Radicle Var. Zhonghua 11 ([2]; 100 µg/mL): 93.72 ± 0.54 a %; Inhibition Ratio (%) Seed Radicle Var. Lijiang ([2]; 200 µg/mL): 96.64 ± 0.36 a %; Inhibition Ratio (%) Seed Radicle Var. Zhonghua 11 ([2]; 200 µg/mL): 95.29 ± 1.63 a %; abnormal swelling of the roots and germs of rice seedlings (rice seedlings): abnormal swelling; IC50 (NCI-H1650): > 50 µM |
